Values of other authors in US9937184B2 (THEOCORP HOLDING COMPANY, LLC, priority 2013, dated 2018).

Assays:
[1] = in vivo
[2] = system: UMR 106-01 rat obsteoblast-like cells; settings: prior art results (Kamagata-Kiyoura 1999)

plasma half-life (t1/2) in the bloodstream [1]	Structure (SMILES)	proliferation of osteoblast-like cells (UMR 106-01) [2]
six	Cn1cnc2c1c(=O)[nH]c(=O)n2C [Theobromine, 3,7-dimethyl-2,3,6,7-tetrahydro-1H-purine-2,6-dione]	
	Cn1c(=O)c2c(ncn2C)n(C)c1=O [caffeine, 1,3,7-trimethylxanthine]	inhibits cell proliferation
